ChEMBL document CHEMBL1128874 (Bioorg Med Chem Lett, 1995)

Test: Antagonism of calmodulin dependent cAMP Phosphodiesterase
Assay type: functional

SMILES	IC50 [nM]
CC/C(=C(\c1ccc(I)cc1)c1ccc(OCCN2CCCC2)cc1)c1ccc(I)cc1	5000
CC/C(=C(\c1ccc(I)cc1)c1ccc(OCCN2CCCC2)cc1)c1ccc(N)cc1	2600

Next, values leading:

IC50 [nM]	SMILES
1800	CC/C(=C(\c1ccc(I)cc1)c1ccc(OCCN2CCCC2)cc1)c1ccc(O)cc1
2200	CC/C(=C(/c1ccc(I)cc1)c1ccc(OCCN2CCCC2)cc1)c1ccc(O)cc1
1500	CC/C(=C(\c1ccc(I)cc1)c1ccc(OCCN2CCCC2)cc1)c1ccccc1 [IDOXIFENE]
